Data from ChEMBL document CHEMBL1201862, “PubChem BioAssay data set” (2004).
Activity calls are given as the source filed them.

Tests used:
J774.A1 = assay: Confirmation of image-based Screening Assay for Inhibitors of Phagocytosis. [Related pubchem assays (depositor defined):AID1029, AID1643]; format: functional, cell-based; details: Mus musculus
HEK293 [1] = assay: cells; details: Homo sapiens
[2] = cytotoxicity in HEK-293T cells, dose response, cytotoxicity control for TCR NF-kB inhibitor project, luminescence, T-cell screen hits (AID 489026); format: functional, cell-based;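 also: cells exposed to compound about 14 hours before the viability readout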
HEK293 [3] = assay: cells; details: Homo sapiens; remark: listed apart in the source

With `Cc1ccc(C(=O)Nc2ncc(Cc3ccc(SC(F)F)cc3)s2)cc1` as the compound, how does the IC50 (J774.A1) read?
Its IC50 is 1.75 µM (active).

And the EC50 (HEK293 [1])?
Its EC50 is > 59.7 µM (inactive).

And the IC50 [2]?
The IC50 was > 80 µM (inactive).

And the EC50 (HEK293 [3])?
The EC50 was > 59.7 µM (inactive).
